# According to article PMC12111564, “Extended Family of Thiophosphoryl-Appended Pd(II) Pincer Complexes with a Deprotonated Amide Core: Synthesis and Biological Evaluation” (International Journal of Molecular Sciences, 2025):
# Like-named read-outs stand apart in the source and are kept apart here.
# Assays:
# [1] = test system: human colorectal carcinoma (HCT116); test: MTT cytotoxicity assay, HCT116; type: cell-based; settings: 48 h exposure, read-out: IC50 ± SD, HCT116
# Method: (§1) The cytotoxic activity of the complexes obtained was screened against several human solid and hematopoietic cancer cell lines using the conventional MTT assay. To evaluate their selectivity for cancerous over non-cancerous cells, analogous tests were performed with pseudonormal human embryonic kidney (HEK293) and breast epithelial (HBL100) cell lines.
# (§2) The cytotoxicity of the compounds obtained was investigated on human colorectal carcinoma (HCT116), breast cancer (MCF7), prostate adenocarcinoma (PC3), glioblastoma (U251), ovarian adenocarcinoma (Scov3), chronic myelogenous leukemia (K562 and K562/iS9), multiple plasmacytoma (AMO1), and acute lymphoblastic leukemia (H9) cell lines, as well as human embryonic kidney (HEK293) and mammary epithelial (HBL100 and HBL100/Dox) cells used as non-cancerous cell lineages. All the cell lines were obtained from American Type Culture Collection (ATCC). The tested compounds were initially dissolved in DMSO. Cisplatin was obtained from a commercial source (as an infusion concentrate in natural saline solution). The experiments were performed using the conventional MTT assay (ICN Biomedicals, Eschwege, Germany) according to the previously published procedure.
# breast cancer (MCF7) [2] = test: MTT cytotoxicity assay, MCF7; type: cell-based, human; settings: 48 h exposure, read-out: IC50 ± SD, MCF7
# Method: as §1, §2
# [3] = test system: prostate adenocarcinoma (PC3); test: MTT cytotoxicity assay, PC3; type: cell-based, human; settings: 48 h exposure, read-out: IC50 ± SD, PC3
# Method: as §1, §2
# [4] = test system: human embryonic kidney (HEK293); test: MTT cytotoxicity assay, HEK293; type: cell-based; settings: 48 h exposure, non-cancerous cells, read-out: IC50 ± SD, HEK293
# Method: as §1, §2
# [5] = test system: mammary epithelial cells HBL100; test: MTT cytotoxicity assay, HBL100; type: cell-based, human; settings: 48 h exposure, non-cancerous cells, read-out: IC50 ± SD, HBL100
# Method: as §1, §2
# [6] = test system: doxorubicin-resistant mammary epithelial cells HBL100/Dox; test: MTT cytotoxicity assay, HBL100/Dox; type: cell-based, human; settings: 48 h exposure, doxorubicin-resistant clone, read-out: IC50 ± SD, HBL100/Dox
# Method: as §1, §2
# [7] = test system: chronic myelogenous leukemia (K562); test: MTT cytotoxicity assay, K562; type: cell-based, human; settings: 48 h exposure, read-out: IC50 ± SD, K562
# Method: as §1, §2
# [8] = test system: doxorubicin-resistant subline of chronic myelogenous leukemia cells (K562/iS9); test: MTT cytotoxicity assay, K562/iS9; type: cell-based, human; settings: 48 h exposure, read-out: IC50 ± SD, K562/iS9
# Method: as §1, §2
# [9] = test system: multiple plasmacytoma (AMO1); test: MTT cytotoxicity assay, AMO1; type: cell-based, human; settings: 48 h exposure, read-out: IC50 ± SD, AMO1
# Method: as §1, §2
# [10] = test system: acute lymphoblastic leukemia (H9); test: MTT cytotoxicity assay, H9; type: cell-based, human; settings: 48 h exposure, read-out: IC50 ± SD, H9
# Method: as §1
# as §2, with “Cisplatin was obtained from a commercial source (as an infusion concentrate in natural saline solution).” left out
# K562 cells = test: Apoptosis induction, Annexin V-FITC/PI flow cytometry, K562; type: cell-based, human; settings: 10 μM, 20 h
# From the text: (§3) To our delight, in general the biological profile of complex (R)-18 appeared to be close to that of the previously reported phenyl-substituted counterpart (compare entries 10 and 1 in Table 1 and entries 6 and 1 in Table 2), with a lower activity on HCT116 and PC3 cells but remarkably higher selectivity towards K562 cells over non-cancerous HEK293 cells. […] The total percentage of early (lower right quadrant) and late (upper right quadrant) apoptotic cells for (R)-18 on K562/iS9 subline was even higher than in the parental cells. These findings prompted us to gain further insight into the bioactivity of the Pd(II) pincer complexes of thiophosphoryl-functionalized amides from the viewpoint of their potential to overcome drug resistance.
# (§4) The apoptosis-inducing ability of enantiomerically pure and racemic complexes 18 was studied on K562 and K562/iS9 cells that were cultured in a medium containing 10 μM of the tested palladocycle for 20 h. The experiments were performed following the published procedure. The analysis was carried out on a FACScan flow cytometer (Becton Dickinson, Franklin Lakes, NJ, USA) using the CellQuest software (version 3.3).
# K562/iS9 cells = test: Apoptosis induction, Annexin V-FITC/PI flow cytometry, K562/iS9; type: cell-based, human; settings: 10 μM, 20 h
# From the text: as §3, §4
# [11] = test system: Bacillus subtillis (VKM B-501); test: Agar well diffusion, B. subtillis; type: cell-based; settings: 10 µL per well, 28 °C, 24 h
# Method: (§5) The microbial strains Bacillus subtillis (VKM B-501), Micrococcus luteus (VKM Ac-2230), and Groenewaldozyma auringiensis (VKM Y-2927) were used for antimicrobial activity tests. All strains were obtained from the All-Russian Collection of Microorganisms (VKM) at the Skryabin Institute of Biochemistry and Physiology of Microorganisms, Pushchino Scientific Center of Biological Research. B. subtilis and M. luteus were grown on the following medium (g/L): aminopeptide 60 mL; tryptone 5.0 g; yeast extract 1.0 g; soybean extract 30 mL; bacto-agar 15.0 g; final pH 7.2. G. auringiensis was grown on malt extract medium containing the following medium (g/L): malt extract 12.75; dextrin 2.75; glycerol 2.35; gelatin peptone 0.78; bacto-agar 15; final pH 5.4. The antimicrobial activity of ligand 17 and its cyclopalladated derivative 18 (both in the racemic form) was studied by the agar well diffusion method. The overnight grown culture of each strain (100 µL) was applied to the surface of the solid medium, then spread on agar plates using a glass spreader, and left for 30 min. The wells were cut in the culture plates using a sterilized glass tube (4 mm in diameter), and each compound sample was dissolved in DMSO to a final concentration of 0.25 or 2.5 mM (10 µL) and was placed in each well. After this, the plates were kept at room temperature for 3 h to improve the diffusion of the compounds and incubated at 28 °C for 24 h. DMSO (15%) was used as a negative control, while kanamycin (50 mg/mL) was used as a positive control. The antimicrobial activity was determined by measuring the inhibition zone around each well as a mean of three replicates.
# [12] = test system: Micrococcus luteus (VKM Ac-2230); test: Agar well diffusion, M. luteus; type: cell-based; settings: 10 µL per well, 28 °C, 24 h
# Method: as §5
# [13] = test system: Groenewaldozyma auringiensis (VKM Y-2927); test: Agar well diffusion, G. auringiensis; type: cell-based; settings: 10 µL per well, 28 °C, 24 h
# Method: as §5
# glioblastoma (U251) = test: MTT cytotoxicity assay, U251; type: cell-based, human
# Method: as §1, §2
# [14] = test system: ovarian adenocarcinoma (Scov3); test: MTT cytotoxicity assay, Scov3; type: cell-based, human
# Method: as §1, §2
# [15] = test system: human colorectal carcinoma (HCT116); design: method as in PMID 37818804; settings: MTT; read-out: IC50 ± SD, HCT116; cited from earlier work
# breast cancer (MCF7) [16] = test system: breast cancer (MCF7); design: method as in PMID 37818804; settings: MTT; read-out: IC50 ± SD, MCF7; cited from earlier work
# [17] = test system: prostate adenocarcinoma (PC3); design: method as in PMID 37818804; settings: MTT; read-out: IC50 ± SD, PC3; cited from earlier work
# [18] = test system: human embryonic kidney (HEK293); design: method as in PMID 37818804; settings: MTT; read-out: IC50 ± SD, HEK293; cited from earlier work
# [19] = test system: mammary epithelial cells HBL100; design: method as in PMID 37818804; settings: MTT; read-out: IC50 ± SD, HBL100; cited from earlier work
# [20] = test system: doxorubicin-resistant mammary epithelial cells HBL100/Dox; settings: MTT; read-out: IC50 ± SD, HBL100/Dox; cited from earlier work
# [21] = test system: chronic myelogenous leukemia (K562); design: method as in PMID 37818804; settings: MTT; read-out: IC50 ± SD, K562; cited from earlier work
# [22] = test system: doxorubicin-resistant subline of chronic myelogenous leukemia cells (K562/iS9); settings: MTT; read-out: IC50 ± SD, K562/iS9; cited from earlier work
# [23] = test system: multiple plasmacytoma (AMO1); design: method as in PMID 37818804; settings: MTT; read-out: IC50 ± SD, AMO1; cited from earlier work
# [24] = test system: acute lymphoblastic leukemia (H9); design: method as in PMID 37818804; settings: MTT; read-out: IC50 ± SD, H9; cited from earlier work
# solid cancer cells = test: MTT cytotoxicity assay, solid cancer cells; type: cell-based, human; settings: inactive at concentrations up to
# Method: as §1, §2
# [25] = test system: hematopoietic cancer cells; test: MTT cytotoxicity assay, hematopoietic cancer cells; type: cell-based, human; settings: inactive at concentrations up to
# Method: as §1, §2
# P-glycoprotein (P-gp) = target: T1, P-glycoprotein (P-gp) (Homo sapiens, UniProt P08183); test: P-gp functional activity, Rh123 efflux from K562/iS9 cells; type: cell-based; settings: 20 μM of complex, 37 °C, 30 min, flow cytometry
# T1 construct: We assessed the efflux of the fluorescent dye Rhodamine 123 (Rh123) from cells with a high P-gp content—K562/iS9 cells; endogenous in cells; host or cells: K562/iS9 (doxorubicin-resistant subline of K562)
# T1 sequence (P08183 whole entry): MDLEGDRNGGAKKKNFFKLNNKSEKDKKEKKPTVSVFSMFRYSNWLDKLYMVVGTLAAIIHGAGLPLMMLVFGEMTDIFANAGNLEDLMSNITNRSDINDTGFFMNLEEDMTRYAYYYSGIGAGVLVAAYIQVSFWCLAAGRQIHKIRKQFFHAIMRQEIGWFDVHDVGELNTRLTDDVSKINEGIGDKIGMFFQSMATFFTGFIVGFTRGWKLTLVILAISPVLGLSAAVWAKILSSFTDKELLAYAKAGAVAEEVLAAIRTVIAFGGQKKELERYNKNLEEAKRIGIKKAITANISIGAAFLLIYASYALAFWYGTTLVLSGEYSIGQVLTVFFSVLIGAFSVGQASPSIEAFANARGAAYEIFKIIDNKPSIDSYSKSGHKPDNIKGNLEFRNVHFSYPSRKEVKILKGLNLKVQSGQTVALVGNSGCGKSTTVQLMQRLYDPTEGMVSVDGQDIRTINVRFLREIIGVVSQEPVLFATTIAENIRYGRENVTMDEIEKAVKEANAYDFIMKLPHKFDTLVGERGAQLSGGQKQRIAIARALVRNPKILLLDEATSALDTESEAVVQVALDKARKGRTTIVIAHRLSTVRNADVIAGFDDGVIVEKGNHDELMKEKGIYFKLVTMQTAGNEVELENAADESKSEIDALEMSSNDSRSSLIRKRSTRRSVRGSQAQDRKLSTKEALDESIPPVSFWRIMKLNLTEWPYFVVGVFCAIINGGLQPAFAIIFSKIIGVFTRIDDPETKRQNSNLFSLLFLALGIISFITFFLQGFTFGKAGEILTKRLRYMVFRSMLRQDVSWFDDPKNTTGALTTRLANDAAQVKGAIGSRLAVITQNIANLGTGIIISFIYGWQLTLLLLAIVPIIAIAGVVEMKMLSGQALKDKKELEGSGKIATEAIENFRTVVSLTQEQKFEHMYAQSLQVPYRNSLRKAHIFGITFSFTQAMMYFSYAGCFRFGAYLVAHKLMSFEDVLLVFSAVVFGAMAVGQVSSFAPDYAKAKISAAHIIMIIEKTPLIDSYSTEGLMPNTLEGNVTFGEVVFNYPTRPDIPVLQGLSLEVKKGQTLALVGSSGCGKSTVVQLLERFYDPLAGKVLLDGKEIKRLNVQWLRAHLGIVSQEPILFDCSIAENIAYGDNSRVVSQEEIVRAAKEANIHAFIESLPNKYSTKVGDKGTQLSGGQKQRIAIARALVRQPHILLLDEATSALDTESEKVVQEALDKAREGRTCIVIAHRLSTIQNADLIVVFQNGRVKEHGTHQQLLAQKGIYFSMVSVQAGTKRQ
# Method: We assessed the efflux of the fluorescent dye Rhodamine 123 (Rh123) from cells with a high P-gp content—K562/iS9 cells [31].
# The functional activity of P-gp was evaluated by the method described earlier [40]. K562/iS9 cells (3 × 10^6) were incubated for 15 min in a culture medium containing 5 μg/mL of Rh123 (Sigma-Aldrich, St. Louis, MO, USA). After incubation, the cells were washed twice and divided into several fractions. […] The incubation was carried out in the full culture medium at 37 °C for 30 min. […] The cell fluorescence was evaluated using a flow cytometer (Becton Dickinson). The results were analyzed using the CellQuest software.
compound,measurement,setting,value
CC(C)C1[N]2C(=O)c3cccc[n+]3[Pd-2]2([Cl])[S+]=P1(c1ccccc1)c1ccccc1 (racemic) [Compound 18],IC50,[1],9.2 ± 1.8 µM
same,IC50,breast cancer (MCF7) [2],19.2 ± 1.3 µM
same,IC50,[3],11.5 ± 1.5 µM
same,IC50,[4],9.5 ± 1.8 µM
same,IC50,[5],14 ± 1.4 µM
same,IC50,[6],23.3 ± 2.7 µM
same,IC50,[7],4.8 ± 1.2 µM
same,IC50,[8],6.4 ± 1.7 µM
same,IC50,[9],3 ± 1.2 µM
same,IC50,[10],3.4 ± 0.1 µM
same,"percentage of necrotic cells (upper left), K562",K562 cells,0.2%
same,"percentage of necrotic cells (upper left), K562/iS9",K562/iS9 cells,0.4%
same,"Inhibition Zone, B. subtillis (VKM B-501)",[11]; 0.25 mM,0.5 ± 0.2 mm
same,"Inhibition Zone, B. subtillis (VKM B-501)",[11]; 2.50 mM,0.5 ± 0.2 mm
same,"Inhibition Zone, M. luteus (VKM Ac-2230)",[12]; 0.25 mM,0.5 ± 0.3 mm
same,"Inhibition Zone, M. luteus (VKM Ac-2230)",[12]; 2.50 mM,4.0 ± 0.5 mm
same,"Inhibition Zone, G. auringiensis (VKM Y-2927)",[13]; 0.25 mM,0 mm
same,"Inhibition Zone, G. auringiensis (VKM Y-2927)",[13]; 2.50 mM,0 mm
O=C1c2cccc[n+]2[Pd-2]2([Cl])[S+]=P(c3ccccc3)(c3ccccc3)C(c3ccccc3)[N]12 (racemic) [Ia],IC50,glioblastoma (U251),34 ± 4 µM
same,IC50,[14],30 ± 2 µM
same,IC50,[15],3 ± 0.5 µM
same,IC50,breast cancer (MCF7) [16],10 ± 2.5 µM
same,IC50,[17],4 ± 0.4 µM
same,IC50,[18],6.2 ± 0.5 µM
same,IC50,[19],16 ± 0.5 µM
same,IC50,[20],34 ± 4 µM
same,IC50,[21],7.4 ± 0.4 µM
same,IC50,[22],5.8 ± 1.2 µM
same,IC50,[23],2.4 ± 0.3 µM
same,IC50,[24],3.2 ± 0.4 µM
N#Cc1ccccc1.N#Cc1ccccc1.[Cl][Pd][Cl] [PdCl2(NCPh)2],"concentration up to which inactive, solid cancer cells",solid cancer cells,> 60 µM
same,"concentration up to which inactive, hematopoietic cancer cells",[25],> 40 µM
COc1cc2c(cc1OC)CN(CCc1ccc(NC(=O)c3cccc4c(=O)c5cccc(OC)c5[nH]c34)cc1)CC2 [elacridar],effect on Rh123 efflux / interaction with P-gp,P-glycoprotein (P-gp),almost completely blocks the efflux of Rh123
